These results are taken from ChEMBL document CHEMBL2007661, “Compounds: GSK PKIS; Assays: UNC Frye lab” (2012).

Holding throughout (conditions): at 1 µM
Test [1] addresses T1, Inhibitor of nuclear factor kappa-B kinase subunit epsilon (Homo sapiens) (UniProt Q14164).
T1 sequence (whole entry): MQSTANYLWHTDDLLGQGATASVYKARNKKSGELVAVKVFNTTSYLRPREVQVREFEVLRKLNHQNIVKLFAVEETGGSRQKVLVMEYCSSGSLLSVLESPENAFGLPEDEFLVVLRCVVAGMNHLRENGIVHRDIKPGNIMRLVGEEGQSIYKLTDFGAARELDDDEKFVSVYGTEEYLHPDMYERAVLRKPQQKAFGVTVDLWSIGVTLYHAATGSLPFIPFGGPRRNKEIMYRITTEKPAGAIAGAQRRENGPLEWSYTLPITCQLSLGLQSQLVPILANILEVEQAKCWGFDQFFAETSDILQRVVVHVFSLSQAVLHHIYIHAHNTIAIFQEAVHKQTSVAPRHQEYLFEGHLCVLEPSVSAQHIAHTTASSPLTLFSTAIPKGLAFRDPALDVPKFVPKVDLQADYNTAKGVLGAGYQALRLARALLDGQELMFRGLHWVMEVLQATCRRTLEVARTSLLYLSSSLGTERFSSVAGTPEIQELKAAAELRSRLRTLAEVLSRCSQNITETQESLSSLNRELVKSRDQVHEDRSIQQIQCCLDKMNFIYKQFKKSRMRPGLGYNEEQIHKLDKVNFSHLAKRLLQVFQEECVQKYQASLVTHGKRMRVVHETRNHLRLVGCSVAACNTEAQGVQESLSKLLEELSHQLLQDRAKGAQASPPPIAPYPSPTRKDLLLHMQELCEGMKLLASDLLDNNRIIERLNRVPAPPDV

Test [2] addresses T2, Inhibitor of nuclear factor kappa-B kinase subunit beta (Homo sapiens) (UniProt O14920).
T2 sequence (whole entry): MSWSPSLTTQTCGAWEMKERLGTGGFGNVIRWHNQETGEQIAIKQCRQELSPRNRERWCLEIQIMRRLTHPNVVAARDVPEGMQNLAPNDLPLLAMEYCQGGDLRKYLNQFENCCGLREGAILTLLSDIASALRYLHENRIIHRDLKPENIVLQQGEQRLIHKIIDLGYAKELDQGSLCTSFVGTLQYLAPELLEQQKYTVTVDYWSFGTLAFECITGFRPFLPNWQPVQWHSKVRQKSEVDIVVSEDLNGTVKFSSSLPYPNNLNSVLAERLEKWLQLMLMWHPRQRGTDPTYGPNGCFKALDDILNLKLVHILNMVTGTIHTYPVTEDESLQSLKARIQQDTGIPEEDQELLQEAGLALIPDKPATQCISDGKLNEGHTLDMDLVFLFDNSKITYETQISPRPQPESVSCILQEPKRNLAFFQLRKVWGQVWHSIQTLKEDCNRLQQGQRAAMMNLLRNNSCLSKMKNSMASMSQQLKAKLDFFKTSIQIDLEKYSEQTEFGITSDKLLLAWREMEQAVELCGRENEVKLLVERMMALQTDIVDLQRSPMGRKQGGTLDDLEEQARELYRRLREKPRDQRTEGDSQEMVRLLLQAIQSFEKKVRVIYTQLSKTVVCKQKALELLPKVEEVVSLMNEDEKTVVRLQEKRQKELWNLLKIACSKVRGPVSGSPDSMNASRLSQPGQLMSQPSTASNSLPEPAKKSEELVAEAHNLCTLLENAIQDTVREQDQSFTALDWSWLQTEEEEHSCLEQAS

Test [3] concerns the target T3, Serine/threonine-protein kinase TBK1 (Homo sapiens) (UniProt Q9UHD2).
T3 sequence (whole entry): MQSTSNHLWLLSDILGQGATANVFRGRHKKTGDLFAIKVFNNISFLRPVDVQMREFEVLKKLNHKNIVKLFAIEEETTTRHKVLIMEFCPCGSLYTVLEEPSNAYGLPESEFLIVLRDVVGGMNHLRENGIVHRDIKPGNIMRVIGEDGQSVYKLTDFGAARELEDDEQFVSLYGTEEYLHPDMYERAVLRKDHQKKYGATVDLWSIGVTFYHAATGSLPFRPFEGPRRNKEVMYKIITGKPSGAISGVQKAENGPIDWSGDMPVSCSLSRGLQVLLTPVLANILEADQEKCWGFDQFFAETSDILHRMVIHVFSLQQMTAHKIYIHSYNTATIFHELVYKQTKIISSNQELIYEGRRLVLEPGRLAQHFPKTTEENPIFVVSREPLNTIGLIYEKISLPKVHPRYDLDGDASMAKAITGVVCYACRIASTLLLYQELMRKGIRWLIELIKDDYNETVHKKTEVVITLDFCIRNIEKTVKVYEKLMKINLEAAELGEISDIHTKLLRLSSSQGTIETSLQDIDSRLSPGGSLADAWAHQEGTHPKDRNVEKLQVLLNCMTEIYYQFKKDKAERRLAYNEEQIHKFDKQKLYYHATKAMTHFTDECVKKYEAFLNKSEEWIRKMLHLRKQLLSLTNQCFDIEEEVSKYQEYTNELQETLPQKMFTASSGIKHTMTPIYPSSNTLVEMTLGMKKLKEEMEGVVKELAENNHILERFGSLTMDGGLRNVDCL

In test [4] the target is T4, Inhibitor of nuclear factor kappa-B kinase subunit alpha (Homo sapiens) (UniProt O15111).
T4 sequence (whole entry): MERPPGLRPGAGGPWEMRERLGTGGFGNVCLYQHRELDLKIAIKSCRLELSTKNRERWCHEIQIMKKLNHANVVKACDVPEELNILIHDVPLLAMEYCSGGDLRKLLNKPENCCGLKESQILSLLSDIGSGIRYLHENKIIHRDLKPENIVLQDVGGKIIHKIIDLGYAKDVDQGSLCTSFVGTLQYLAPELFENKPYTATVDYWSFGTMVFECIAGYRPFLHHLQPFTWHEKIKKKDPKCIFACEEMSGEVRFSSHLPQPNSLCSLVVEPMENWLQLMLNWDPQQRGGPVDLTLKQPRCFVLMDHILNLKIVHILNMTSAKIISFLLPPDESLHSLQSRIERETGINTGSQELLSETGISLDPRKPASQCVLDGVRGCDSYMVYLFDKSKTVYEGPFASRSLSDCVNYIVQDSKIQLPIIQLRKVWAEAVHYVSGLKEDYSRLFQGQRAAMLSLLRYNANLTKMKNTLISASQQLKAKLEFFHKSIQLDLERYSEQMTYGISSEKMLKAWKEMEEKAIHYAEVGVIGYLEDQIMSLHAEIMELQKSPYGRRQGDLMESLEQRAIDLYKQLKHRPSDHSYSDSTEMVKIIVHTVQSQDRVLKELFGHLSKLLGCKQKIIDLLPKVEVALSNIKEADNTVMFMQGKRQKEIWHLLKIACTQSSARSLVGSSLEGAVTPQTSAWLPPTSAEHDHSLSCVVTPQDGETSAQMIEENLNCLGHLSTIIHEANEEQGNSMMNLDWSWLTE

Values joined by “and” are separate entries in the source; they are usually repeats but may differ in a detail not shown here. Equal entries are not always repeated.

Regarding `COc1cc(Nc2ncc(-c3ccccc3)o2)cc(OC)c1`, the inhibition in test [1] was 0% and -1%; in test [2], 0% and -4%; in test [3], 0% and 3%; in test [4] it was 1%.

Regarding `CCn1c(-c2nonc2N)nc2c(C#CC(C)(C)O)ncc(OC3CCNCC3)c21`, the inhibition in test [1] was 95% and 96%; in test [2], -4%; in test [3], 55% and 57%; in test [4], 9% and 5%.

Take `COc1cc2ncnc(Nc3ccc4c(cnn4Cc4ccccc4)c3)c2cc1OC`: the inhibition in test [1] was 2%; in test [2], 5% and -4%; in test [3] it was 5% and 2%; in test [4] it was 2% and -2%.

As for `CN1CCC(C(=O)Nc2n[nH]c3nc(-c4ccc(O)cc4)c(Br)cc23)CC1`, the inhibition in test [1] is 2% (2×) and 1%; in test [2], -1% [middle of 4 runs]; in test [3] it was 3% [middle of 4 runs]; in test [4] it was 1% and 3% and 4%.

With `NCc1ccc(-c2nc(-c3ccc(Cl)c(O)c3)c(-c3ccncc3)[nH]2)cc1`, the inhibition was -1% and 0% in test [1]; 2% in test [2]; 14% and 16% in test [3]; -3% and -4% in test [4].

In the case of `Nc1nccc(C#Cc2cncnc2Nc2ccc(OCc3cccc(F)c3)c(Cl)c2)n1`, the inhibition was 2% and 4% in test [1]; -6% and -7% in test [2]; 18% and 9% in test [3]; 2% and 0% in test [4].

As to `COc1cc2ncn(-c3cc(OCc4ccccc4C(F)(F)F)c(C(N)=O)s3)c2cc1OC`, the inhibition was 0% and 3% in test [1]; -1% and 0% in test [2]; 12% in test [3]; 2% and 0% in test [4].

In the case of `CCn1c(-c2nonc2N)nc2c(C#CC(C)(C)O)ncc(OC[C@@H]3CCCN3)c21`, the inhibition in test [1] is 97%; in test [2], -2% and -1%; in test [3], 65% and 66%; in test [4], 18% and 19%.

Turning to `CC(=O)Nc1cccc(C#Cc2cncnc2Nc2ccc(OCc3cccc(F)c3)c(Cl)c2)n1`, the inhibition is -1% in test [1]; -4% and -2% in test [2]; 3% and 0% in test [3]; 2% in test [4].

Regarding `CN(C)C(=O)O[C@@H]1CN[C@@H](C#Cc2cc3ncnc(Nc4ccc(OCc5cccc(F)c5)c(Cl)c4)c3s2)C1`, the inhibition is -1% in test [1]; -4% and -7% in test [2]; 12% and 7% in test [3]; 2% and 1% in test [4].

For the compound `COc1cc2ncn(-c3cc(OCc4ccccc4C(F)(F)F)c(C(C)=O)s3)c2cc1OC`, the inhibition is -4% in test [1]; -7% and -4% in test [2]; -3% and -2% in test [3]; 5% and 4% in test [4].

Regarding `COc1cc(N2CCN(C(C)C)CC2)ccc1Nc1nc(Nc2ccc(F)cc2C(=O)NC[C@@H](O)CO)c2cc[nH]c2n1`, the inhibition was 0% and 1% in test [1]; -1% and -2% in test [2]; -1% and -3% in test [3]; 2% and 3% in test [4].

As for `CCS(=O)(=O)c1ccc(OC)c(Nc2nccc(N(C)c3ccc4c(C)n[nH]c4c3)n2)c1`, the inhibition is 8% and 7% in test [1]; 3% and -7% in test [2]; 1% in test [3]; -7% and 2% in test [4].

As for `COc1ccc2cc(-c3c(-c4ccncc4)nc(-c4ccc([S+](C)[O-])cc4C)n3C)ccc2c1` (centres undefined), the inhibition in test [1] was -1% and -2%; in test [2], 1% and 0%; in test [3], -2% and -3%; in test [4], -4% and -5%.

For `CCn1c(-c2nonc2N)nc2cncc(C(=O)N3CC[C@H](N)C3)c21`, the inhibition in test [1] was 54% and 53%; in test [2] it was -1% and -5%; in test [3] it was 32% and 36%; in test [4], 35% and 28%.

Take `COc1cc2ncn(-c3cc(OCc4ccccc4S(C)(=O)=O)c(C#N)s3)c2cc1OC`: the inhibition in test [1] is 90% and 88%; in test [2], -5% and -2%; in test [3], 103% and 101%; in test [4] it was 1% and 2%.

As usually defined, the inhibition is the drop in the measured response relative to a control, in per cent.
